This is an account of results in PubChem BioAssay AID330 (DTP/NCI, 2004).

This assay concerns P388 leukemia ip, CD2F1 mice, survival T/C. Description: NCI In Vivo Anticancer Drug Screen. Data for tumor model P388 Leukemia (intraperitoneal) in CD2F1 (CDF1) mice. As to conditions: endpoint: median survival time, higher = longer survival. The procedure, abridged:
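Mice carrying the transplanted tumor received test compound or vehicle. Survival was recorded in each group, and the value is the treated-group measurement divided by that of the vehicle-treated control group.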

Where [1] appears, read: dose: 50.0 mg/kg/injection, schedule: Q01DX005 (ip), vehicle: saline with Tween-80.
Where [2] appears, read: dose: 100.0 mg/kg/injection, schedule: Q01DX005 (ip), vehicle: saline with Tween-80.
Setting [3] is: dose: 200.0 mg/kg/injection, schedule: Q01DX005 (ip), vehicle: saline with Tween-80.
[4] abbreviates: dose: 60.0 mg/kg/injection, schedule: Q01DX005 (ip), vehicle: saline with Tween-80.
[5] abbreviates: dose: 120.0 mg/kg/injection, schedule: Q01DX005 (ip), vehicle: saline with Tween-80.
The mark [6] stands for this setting: dose: 240.0 mg/kg/injection, schedule: Q01DX005 (ip), vehicle: saline with Tween-80.
Setting [7] is: dose: 12.5 mg/kg/injection, schedule: Q01DX009 (ip), vehicle: saline.
[8] abbreviates: dose: 25.0 mg/kg/injection, schedule: Q01DX009 (ip), vehicle: saline.
[9] abbreviates: dose: 50.0 mg/kg/injection, schedule: Q01DX005 (ip), vehicle: saline.
Setting [10] is: dose: 100.0 mg/kg/injection, schedule: Q01DX001 (ip), vehicle: saline with Tween-80.
[11] abbreviates: dose: 200.0 mg/kg/injection, schedule: Q01DX001 (ip), vehicle: saline with Tween-80.
Setting [12] is: dose: 400.0 mg/kg/injection, schedule: Q01DX001 (ip), vehicle: saline with Tween-80.

“And” between values parts separate entries of the source, which are not always exact repeats. Identical values can stand only once. Toxic doses and inconclusive results are not listed.

Turning to `O=C(Nc1ccc2c(c1)oc(=O)c1ccccc12)C(Cl)Cl`, the T/C was 96 % of control under setting [1], 98 % of control under setting [2] and 89 % of control under setting [3].
In the case of `COC(=O)C1(CC(=O)c2ccc(Cl)cc2)NC(=S)NC(=O)C1C#N` (stereo unspecified), the T/C reads like this: under setting [4], 99 % of control; under setting [5], 98 % of control; under setting [6], 106 % of control.
Take `CNC(=O)Nc1ccc(/C(C)=N/NC(N)=S)cc1`: the T/C under setting [4] is 96 % of control and the T/C under setting [5] was 89 % of control.
As for `C[C@]12C=CC(=O)NC[C@@H]1CC[C@@H]1[C@@H]2CC[C@]2(C)[C@@H](OC(=O)COc3ccc(N(CCCl)CCCl)cc3)CC[C@@H]12`, the T/C reads like this: (dose: 7.5 mg/kg/injection, schedule: Q01DX005 (ip), vehicle: saline with Tween-80) 120 % of control; (dose: 15.0 mg/kg/injection, schedule: Q01DX005 (ip), vehicle: saline with Tween-80) 120 % of control; (dose: 30.0 mg/kg/injection, schedule: Q01DX005 (ip), vehicle: saline with Tween-80) 151 % of control; under setting [4], 198 % of control and 255 % of control; under setting [5], 157 % of control.
Consider `CCCCCCCCCCCCNC(=O)C[n+]1cccc(C(=O)Nc2ccccc2)c1`, for which the T/C is 100 % of control (dose: 3.0 mg/kg/injection, schedule: Q01DX009 (ip), vehicle: saline with Tween-80); 104 % of control (dose: 6.0 mg/kg/injection, schedule: Q01DX009 (ip), vehicle: saline with Tween-80); 95 % of control (dose: 12.0 mg/kg/injection, schedule: Q01DX009 (ip), vehicle: saline with Tween-80).
With `NC(=O)N=Nc1ccc(Br)cc1`, the T/C reads like this: under setting [1], 102 % of control; under setting [2], 102 % of control; under setting [3], 93 % of control.
`CN(/N=C\c1cc(Cl)cc(Cl)c1O)c1ccccc1[N+](=O)[O-]`: the T/C was 101 % of control (dose: 50.0 mg/kg/injection, schedule: Q01DX005 (ip), vehicle: Klucel (hydroxypropylcellulose) (HPC)); 95 % of control (dose: 100.0 mg/kg/injection, schedule: Q01DX005 (ip), vehicle: Klucel (hydroxypropylcellulose) (HPC)); 101 % of control (dose: 200.0 mg/kg/injection, schedule: Q01DX005 (ip), vehicle: Klucel (hydroxypropylcellulose) (HPC)).
Regarding `Cc1ccc(C[N+](C)(C)CCCCCOc2c(Br)cc(Br)cc2Br)o1`, the T/C was 101 % of control (dose: 3.13 mg/kg/injection, schedule: Q04DX003 (ip), vehicle: Klucel (hydroxypropylcellulose) (HPC)); 94 % of control (dose: 6.25 mg/kg/injection, schedule: Q04DX003 (ip), vehicle: Klucel (hydroxypropylcellulose) (HPC)); 98 % of control and 106 % of control (dose: 12.5 mg/kg/injection, schedule: Q04DX003 (ip), vehicle: Klucel (hydroxypropylcellulose) (HPC)).
For the compound `CCC[CH2][Sn]([CH3])([CH2]CC[N+](C)(C)C)[O]C(C)=O` (stereo unspecified), the T/C runs as follows: under setting [7], 105 % of control; under setting [8], 106 % of control; (dose: 50.0 mg/kg/injection, schedule: Q01DX009 (ip), vehicle: saline) 100 % of control and 115 % of control.
Regarding `CSc1nc(NC2OC(CO)C(O)C(O)C2O)c(C(=O)CCl)c(=O)n1C` (stereo unspecified), the T/C under setting [1] was 93 % of control, the T/C under setting [2] is 91 % of control and the T/C under setting [3] was 90 % of control.
With `[Cu+2].[NH-]C(Cc1cnc[nH]1)C(=O)O.[NH-]CC(=O)O` (stereo unspecified), the T/C is, setting by setting: (dose: 6.25 mg/kg/injection, schedule: Q01DX009 (ip), vehicle: saline) 97 % of control; under setting [7], 93 % of control and 95 % of control; under setting [8], 97 % of control.
On to `Cc1cccc2c1Oc1ccccc1C2NC(=O)c1ccccc1` (stereo unspecified), for which the T/C is 86 % of control (dose: 12.5 mg/kg/injection, schedule: Q01DX005 (ip), vehicle: saline with Tween-80); 89 % of control (dose: 25.0 mg/kg/injection, schedule: Q01DX005 (ip), vehicle: saline with Tween-80); 86 % of control and 88 % of control under setting [1]; 87 % of control under setting [3].
In the case of `Nc1nnc2nc(CC(=O)/C=C/c3ccccc3)c(CC(=O)/C=C/c3ccccc3)nn12`, the T/C is 98 % of control under setting [9]; 97 % of control (dose: 100.0 mg/kg/injection, schedule: Q01DX005 (ip), vehicle: saline); 104 % of control (dose: 200.0 mg/kg/injection, schedule: Q01DX005 (ip), vehicle: saline).
For `COc1c2c(cc3ccc(=O)oc13)C=CC(C)(C)O2`, the T/C is, setting by setting: (dose: 9.75 mg/kg/injection, schedule: Q01DX005 (ip), vehicle: Klucel (hydroxypropylcellulose) (HPC)) 100 % of control; (dose: 19.5 mg/kg/injection, schedule: Q01DX005 (ip), vehicle: Klucel (hydroxypropylcellulose) (HPC)) 89 % of control; (dose: 39.0 mg/kg/injection, schedule: Q01DX005 (ip), vehicle: Klucel (hydroxypropylcellulose) (HPC)) 100 % of control; (dose: 78.0 mg/kg/injection, schedule: Q01DX005 (ip), vehicle: Klucel (hydroxypropylcellulose) (HPC)) 89 % of control.
On to `Cc1ccc2c(O)c3c(cc2c1)C(=O)c1c2c(cc(O)c1C3=O)C1(C)OC(O2)C(O)C(N(C)C)C1O` (stereo unspecified), for which the T/C reads like this: (dose: 1.6 mg/kg/injection, schedule: Q01DX009 (ip), vehicle: other) 97 % of control; (dose: 3.13 mg/kg/injection, schedule: Q01DX009 (ip), vehicle: other) 98 % of control; (dose: 6.25 mg/kg/injection, schedule: Q01DX009 (ip), vehicle: other) 87 % of control; (dose: 12.5 mg/kg/injection, schedule: Q01DX009 (ip), vehicle: other) 116 % of control; (dose: 25.0 mg/kg/injection, schedule: Q01DX009 (ip), vehicle: other) 97 % of control.
Regarding `O=S1(=O)CS(=O)(=O)OCCCCO1`, the T/C is, setting by setting: (dose: 12.5 mg/kg/injection, schedule: Q01DX005 (ip), vehicle: saline) 176 % of control; (dose: 25.0 mg/kg/injection, schedule: Q01DX005 (ip), vehicle: saline) 167 % of control and 199 % of control; under setting [9], 87 % of control.
As to `NC1=NS(=O)(=O)Nc2nn(-c3ccccc3)nc21`, the T/C was 107 % of control under setting [10], 101 % of control under setting [11] and 99 % of control under setting [12].
Consider `COC(=O)C1=C(C(=O)OC)CC(n2nnc(C(=O)OC)c2C(=O)OC)=CC1`, for which the T/C was 92 % of control under setting [4], 101 % of control under setting [5] and 99 % of control under setting [6].
`C/C(=N\OC(=O)CNOC(C)(C)C)c1ccccn1`: the T/C is, setting by setting: under setting [10], 103 % of control; under setting [11], 99 % of control; under setting [12], 99 % of control.
As to `OCC1(O)OCC(O)C(O)C1O` (stereo unspecified), the T/C reads like this: (dose: 100.0 mg/kg/injection, schedule: Q01DX009 (ip), vehicle: saline) 99 % of control; (dose: 200.0 mg/kg/injection, schedule: Q01DX009 (ip), vehicle: saline) 98 % of control; (dose: 400.0 mg/kg/injection, schedule: Q01DX009 (ip), vehicle: saline) 105 % of control.
Turning to `CC(CN(CC(=O)O)CC(=O)O)N(CC(=O)O)CC(=O)O.[Cl][Pd][Cl]` (stereo unspecified), the T/C (dose: 60.0 mg/kg/injection, schedule: Q01DX005 (ip), vehicle: saline) was 94 % of control and the T/C (dose: 120.0 mg/kg/injection, schedule: Q01DX005 (ip), vehicle: saline) is 91 % of control.
`O=c1cc(-c2ccccc2)[nH]c2[nH]n(-c3ccccc3)c(=O)c12`: the T/C under setting [4] was 110 % of control, the T/C under setting [5] was 104 % of control and the T/C under setting [6] was 94 % of control.
`O=C(NC1CCCN1C(=O)/C=C/c1ccccc1)NC1CCCN1C(=O)/C=C/c1ccccc1` (stereo unspecified): the T/C by setting is: under setting [4], 100 % of control; under setting [5], 88 % of control; under setting [6], 101 % of control.
With `[N-]=[N+]=Nc1ccnc2cc(C(F)(F)F)ccc12`, the T/C by setting is: under setting [4], 103 % of control; under setting [5], 100 % of control; under setting [6], 96 % of control.
Turning to `O=c1c2ccccc2c(-c2ccc(N(CCCl)CCCl)cc2)cn1CCCl`, the T/C is, setting by setting: (dose: 25.0 mg/kg/injection, schedule: Q04DX003 (ip), vehicle: Klucel (hydroxypropylcellulose) (HPC)) 100 % of control; (dose: 50.0 mg/kg/injection, schedule: Q04DX003 (ip), vehicle: Klucel (hydroxypropylcellulose) (HPC)) 114 % of control; (dose: 100.0 mg/kg/injection, schedule: Q04DX003 (ip), vehicle: Klucel (hydroxypropylcellulose) (HPC)) 107 % of control; (dose: 200.0 mg/kg/injection, schedule: Q04DX003 (ip), vehicle: Klucel (hydroxypropylcellulose) (HPC)) 115 % of control; (dose: 400.0 mg/kg/injection, schedule: Q04DX003 (ip), vehicle: Klucel (hydroxypropylcellulose) (HPC)) 100 % of control.
